Laboratory results from ChEMBL document CHEMBL1128850, “Synthesis and qsar of dequalinium analogues AS K+ channel blockers. investigations on the role of the 4-amino group” (Bioorg Med Chem Lett, 1995).

Columns and labels:
Assay type in all cases: functional
Rattus norvegicus [1] = species: Rattus norvegicus; test: Ability to inhibit the hyperpolarization (AHP) in cultured rat sympathetic neurons; conditions: Sympathetic neuron
Rattus norvegicus [2] = species: Rattus norvegicus; test: Ratio of the negative logarithmic concentration to that of dequalinium that cause 50% inhibition of the hyperpolarization (AHP)
Rattus norvegicus [3] = species: Rattus norvegicus; test: The equi-effective molar ratio of the concentration to that of dequalinium that cause 50% inhibition of the hyperpolarization (AHP)

Compound `CC(=O)Nc1cc[n+](CCCCCCCCCC[n+]2ccc(NC(C)=O)c3ccccc32)c2ccccc12` has an IC50 (Rattus norvegicus [1]) of 4500 nM, a pEMR (Rattus norvegicus [2]) of -0.74 and an EMR (Rattus norvegicus [3]) of 5.5.

In the case of `c1ccc(Oc2cc[n+](CCCCCCCCCC[n+]3ccc(Oc4ccccc4)c4ccccc43)c3ccccc23)cc1`, the IC50 (Rattus norvegicus [1]) is reported as 2700 nM, the pEMR (Rattus norvegicus [2]) is reported as -0.81 and the EMR (Rattus norvegicus [3]) is reported as 6.5.

Work on `Nc1cc[n+](CCCCCCCCCC[n+]2ccc(N)c3ccccc32)c2ccccc12` yielded an IC50 (Rattus norvegicus [1]) of 1400 nM, a pEMR (Rattus norvegicus [2]) of -0.11 and an EMR (Rattus norvegicus [3]) of 1.3.

For `Cc1cc[n+](CCCCCCCCCC[n+]2ccc(C)c3ccccc32)c2ccccc12`, the IC50 (Rattus norvegicus [1]) was 15000 nM, the pEMR (Rattus norvegicus [2]) was -1.41 and the EMR (Rattus norvegicus [3]) was 26.

`c1ccc2c(c1)ccc[n+]2CCCCCCCCCC[n+]1cccc2ccccc21` showed a pEMR (Rattus norvegicus [2]) of -1.18 and an EMR (Rattus norvegicus [3]) of 15.

Compound `CN(C)c1cc[n+](CCCCCCCCCC[n+]2ccc(N(C)C)c3ccccc32)c2ccccc12` has an IC50 (Rattus norvegicus [1]) of 1400 nM, a pEMR (Rattus norvegicus [2]) of -0.15 and an EMR (Rattus norvegicus [3]) of 1.4.

With `c1ccc(Nc2cc[n+](CCCCCCCCCC[n+]3ccc(Nc4ccccc4)c4ccccc43)c3ccccc23)cc1` the IC50 (Rattus norvegicus [1]) was 2400 nM, the pEMR (Rattus norvegicus [2]) was -0.53 and the EMR (Rattus norvegicus [3]) was 3.4.

With `Cc1cc(N)c2ccccc2[n+]1CCCCCCCCCC[n+]1c(C)cc(N)c2ccccc21.[Cl-].[Cl-]` [DEQUALINIUM CHLORIDE] the pEMR (Rattus norvegicus [2]) was 0 and the EMR (Rattus norvegicus [3]) was 1.
